Results published in ChEMBL document CHEMBL1145656, “Production of cytotoxic canthin-6-one alkaloids by Ailanthus altissima plant cell cultures” (J Nat Prod, 1983).
Converted amounts (≈) assume the structure as drawn.

assay: Cytotoxicity against GPK cells by [3H]thymidine incorporation assay; type: functional, cell-based; settings: Cavia porcellus

Row | Structure (SMILES) | IC50 [µg/mL]
1 | O=c1ccc2nccc3c4ccccc4n1c23 [CANTHIN-6-ONE] | 1.11 (≈ 5.04 µM)
2 | COc1cc2nccc3c4ccccc4n(c1=O)c23 [5-METHOXYCANTHINONE] | 5.44 (≈ 21.7 µM)
3 | O=c1ccc2c3c(cc[n+]2[O-])c2ccccc2n13 | 4.21 (≈ 17.8 µM)
4 | COc1cnc2ccc(=O)n3c4ccccc4c1c23 | 5.76 (≈ 23 µM)
